Data from patent US20230381257A1, “HERBAL COMPOSITION JCM-16021 AS TREATMENT FOR INFLAMMATORY BOWEL DISEASE” (Hong Kong Baptist University, priority 2022, published 2023).

Columns and labels:
Type in all cases: in vivo, Rag 1−/− immunodeficient mice
Tnf-α and Mcp-1 mRNA = test: qRT-PCR of colon tissue, T cell transfer colitis model
Protocol: Total RNA was extracted from tissues using Trizol reagent (Invitrogen) and reverse transcribed into cDNA using cDNA synthesis kit (Bio-Rad Laboratories). The cDNA was diluted 50-fold as a template for qRT-PCR. According to the kit instructions mRNA expression levels were detected using SYBR Green fluorescent probe. Primers used for qRT-PCR are: Tnf-α, forward primer 5′-[…]-3′ (SEQ ID NO:1), reverse primer 5′-[…]-3′ (SEQ ID NO:2); Mcp-1, forward primer 5′-[…]-3′ (SEQ ID NO:3), reverse primer 5′-[…]-3′ (SEQ ID NO:4); 18S rRNA, forward primer 5′-[…]-3′ (SEQ ID NO:5), reverse primer 5′-[…]-3′ (SEQ ID NO:6).
(§1) CD4^+ naive T cells were isolated and purified from the spleens of wild-type C57BL/6J mice using a naive CD4+ T cell isolation kit (#130-104-453, Miltenyi Biotech) according to the manufacturer's recommendations. The isolated CD4^+ naive T cells were incubated with antibodies against CD4 (#100406, BioLegend), CD25 (#17025182, eBiosciences) and CD45RB (#103314, BioLegend) and purity was analyzed by BD Fortessa flow cytometer (BD Biosciences). 4×10^5 CD4^+ naive T cells were intraperitoneally injected into Rag 1^−/− immunodeficient mice. Clinical symptoms of colitis including fecal occult blood, loose stool/diarrhea, rough/hunched posture and weight loss were monitored every three days thereafter. […]

CD4+Foxp3+ Treg cells = test: Flow cytometry of regulatory T cells in colon lamina propria lymphocytes, T cell transfer colitis model; conditions: JCM-16021 2.0 g/kg; IFLX 5 mg/kg; FACS, FIG. 4B
Protocol: After dissecting and isolating the colon from mice, it was washed four times in ice-cold PBS (137 mM NaCl, 2.7 mM KCl, 10 mM Na2HPO4, 1.8 mM KH2PO4, pH 7.4) and then cut into approximately 1 cm long fragments. Intestinal epithelial cells and lamina propria were separated by vigorous shaking in HBSS buffer containing 2 mM EDTA at 37° C. for 30 minutes. Intestinal epithelial cells were collected by centrifugation at 1,000 rpm at 4° C. The remaining colon tissue was incubated with digestion buffer (DMEM medium, 5% fetal calf serum, 1 mg/mL collagenase IV and DNAse I) at 37° C. with shaking for 40 minutes to separate colon lamina propria lymphocytes. The digested colon tissue cell suspension was filtered through a 70 micron cell filter and centrifuged. […]
Colon lamina propria lymphocytes were diluted to 1×10^5 cells/mL and subjected to intracellular staining after fixation and permeabilization. Cells were stained with a primary antibody diluted 1:100 at 4° C. in the dark for 30 minutes and analyzed by flow cytometry using antibodies against CD3 (APC, BD Biosciences), CD4 (FITC, BD Biosciences), and Foxp3 (PE, BD Biosciences). Analysis was performed using a BD LSRFortessa™ flow cytometer (BD Biosciences) and data obtained was analyzed using FlowJo software. […]

[1] = system: ulcerative colitis induced by CD4+ naive T cell transfer; test: CD4+ naive T cell transfer-induced ulcerative colitis model: fecal occult blood, pathological index, H&E/PAS histology
Source text: Day one of the experiment is defined as i) adoptive transfer of […] CD4^+ T cells to Rag 1^−/− mice or ii) first day of DSS administration. JCM-16021 was orally administered to mice (weighing approximately 22-24 grams) at doses of 1.0 and 2.0 g/kg. Body weight and fecal bleeding were monitored every three days. Mice were euthanized and serum, colon tissue, spleen, mesenteric lymph nodes and feces were collected for further analysis.
Fecal occult blood test kit was purchased from Nanjing Jiancheng Bioengineering Institute and performed according to the kit instructions.
Histological staining, PAS staining, immunohistochemical staining and immunofluorescent staining: • At the end of the experiment, mouse colon tissue was preserved using 4% paraformaldehyde fixed at 4° C. for 2 hours and embedded in paraffin. After dewaxing, mouse colon tissue sections were washed with PBS and blocked with 3% H2O2. Tissue sections were then blocked with blocking solution (10% horse serum, 0.1% bovine serum albumin, 0.2% gelatin) at room temperature for 1 hour to block non-specific sites. […]
Histological grading of colitis were analyzed based on inflammatory features, extent, regeneration, crypt damage and percentage in hematoxylin-eosin and periodic acid-Schiff stained colon sections. Colitis scores will be determined by two independent researchers blinded to animal treatment.
as §1, with “4×10^5 CD4^+ naive T cells were intraperitoneally injected into Rag 1^−/− immunodeficient mice.” left out

Substance: infliximab [IFLX]
- expression level of Tnf-α mRNA in colon tissue (Tnf-α and Mcp-1 mRNA; FIG. 2B): significantly reduced
- expression level of Mcp-1 mRNA in colon tissue (Tnf-α and Mcp-1 mRNA; FIG. 2C): significantly reduced
- ratio of CD4+Foxp3+ Treg cells in isolated LPMC (CD4+Foxp3+ Treg cells): similar
- fecal occult blood ([1]; JCM-16021 1.0 and 2.0 g/kg oral twice daily for three weeks, IFLX 5 mg/kg once weekly, FIG. 1C): did not exhibit similar activity
- ulcerative colitis pathological index ([1]; JCM-16021 1.0 and 2.0 g/kg oral twice daily for three weeks, IFLX 5 mg/kg once weekly, FIG. 1D): did not exhibit similar activity
- overall therapeutic efficacy (comparison of doses and with IFLX) ([1]; JCM-16021 2.0 g/kg vs 1.0 g/kg, infliximab 5 mg/kg under the same experimental conditions): less effective than JCM-16021
